Source: patent US11358956B2, “Compounds containing polysubstituted benzo[d][1,3]oxathiole, benzo[d][1,3]oxathiole 3-oxide or benzo[d][1,3]oxathiole 3,3-dioxide and methods/uses thereof as agonists of G protein-coupled receptor 119” (PRAMANA PHARMACEUTICALS INC., priority 2017, dated 2022)
Read-outs that look alike come from different tables or passages of the source.

Key:
human GPR119 receptor [1] = biological target: T1, human GPR119 receptor (Homo sapiens, UniProt Q8TDV5); test: LANCE Ultra cAMP assay: stimulation of GPR119-mediated cAMP production in CHO cells stably expressing human GPR119 receptor; assay type: cell-based; settings: read-out: % cAMP Max. relative to forscolin
T1 construct: host or cells: CHO
T1 sequence (Q8TDV5 1-335): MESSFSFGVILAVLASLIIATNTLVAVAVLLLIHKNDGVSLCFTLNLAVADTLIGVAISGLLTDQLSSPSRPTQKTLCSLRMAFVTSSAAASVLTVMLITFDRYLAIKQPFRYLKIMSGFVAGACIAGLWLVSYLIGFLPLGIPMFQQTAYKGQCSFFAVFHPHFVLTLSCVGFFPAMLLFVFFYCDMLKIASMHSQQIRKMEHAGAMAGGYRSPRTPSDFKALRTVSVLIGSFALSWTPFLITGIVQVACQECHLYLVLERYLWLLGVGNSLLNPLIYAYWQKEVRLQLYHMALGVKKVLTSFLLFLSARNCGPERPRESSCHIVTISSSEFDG

human GPR119 receptor [2] = biological target: T1, human GPR119 receptor; test: as above; assay type: cell-based
Protocol: The potency of GPR119 receptor agonists was assessed by measuring the stimulation of GPR119-mediated cAMP production with LANCE Ultra cAMP assay (Perkin Elmer, TRF0264) in CHO cells stably expressing human GPR119 receptor (Chantest, cat. #A633). CHO-GPR119 cells were cultured in DMEM/F12 medium supplemented with 10% FBS and 1% NEAA at 37° C., 5% CO2, aliquoted and frozen in liquid nitrogen.
For assay, cells were thawed in a water bath at 37° C., washed in Hank's Balanced Salt Solution (HBSS) and resuspended in Stimulation Buffer 1 (SB1) for 30 min: 5 mM HEPES, pH 7.2-7.4, 0.1% BSA in HBSS. […] The ULight-anti-cAMP antibody (Perkin Elmer, TRF0264) was added to the cell suspension making Mix [Cell suspension/4× ULight-anti-cAMP antibodies]. The resulting cell suspension Mix was plated to 384-well assay plates (Corning, white low volume, #3674) 5 µL/well. The assay plate was centrifuged 200 g, 5 sec.
Serial dilution (100×) of tested compounds were prepared in DMSO in the range of from 30 nM to 1 mM with half-log step in 384-well plates (Greiner, 781280) using Biomek 2000. 10 test concentrations in two repeats were prepared for each CRC. It was diluted 50 times in SB1 and each tested concentration was added to cells in the assay plate—5 µL/well. The assay plate was incubated 30 minutes at room temperature on a shaker, 250 rpm to allow GPR119 receptor stimulation. The cAMP level was determined according to the standard kit supplier protocol (PerkinElmer, cat. #TRF0264).
The stock solution of the Eu-cAMP tracer (Perkin Elmer, TRF0264) was diluted 1:100 in cAMP Detection Buffer (Perkin Elmer, TRF0264), making 2× working concentration and added to the assay plate, 10 μL per well. Assay plate was centrifuged 180 g, 1 sec. Then the assay plate was incubated for 60′ at room temperature on shaker, 250 rpm to allow cAMP detection. The TR-FRET signal was measured at Ex-340 nm/Em-615 and Ex-340 nm/Em-665 nm on the reader Tecan M1000. 0% of cAMP stimulation corresponds to the cells with DMSO only, 100% of cAMP stimulation corresponds to the cells with […] Forskolin. The EC50 value defined as the concentration of the drug that gives half-maximal response, were calculated using GraphPad Prizm 5.0 software with forskolin was used as references at each test. Entries 1-17 in Table 2A and entries 1-14 in Table 2B show the biological activity of certain representative compounds using the protocol as described above.

[3] = Table 2C entries 1-4, modified protocol, 500 cells/well
[4] = Table 2A entries 1-17, protocol as described (800,000 cells/mL suspension), CHO-GPR119 cells

| SMILES | Emax (human GPR119 receptor [1]; [3]) [%] | EC50 (human GPR119 receptor [2]; [3]) [nM] | EC50 (human GPR119 receptor [2]; [4]) [nM] | Emax (human GPR119 receptor [1]; Table 2A entries 1-17, protocol as described, 100% = cells with Forskolin, 0% = DMSO only) [%] |
| --- | --- | --- | --- | --- |
| O=S1(=O)c2ccc(-c3ccc(OCC4CCN(c5ncc(Cl)cn5)CC4)c(F)c3)cc2OC12CCCCC2 [Example C-11, 5-chloro-2-(4-{[4-(3,3-dioxidospiro[1,3-benzoxathiole-2,1′-cyclohexan]-6-yl)-2-fluorophenoxy]methyl}piperidin-1-yl)pyrimidine] | 25 | 33 |  |  |
| O=S1(=O)c2ccc(-c3ccc(OCC4CCN(c5ncc(Cl)cn5)CC4)c(F)c3)cc2OC12CCCC2 [Example C-8, 5-chloro-2-(4-{[4-(3,3-dioxidospiro[1,3-benzoxathiole-2,1′-cyclopentan]-6-yl)-2-fluorophenoxy]methyl}piperidin-1-yl)pyrimidine] | 66 | 114 |  |  |
| O=S1(=O)c2ccc(-c3ccc(OCC4CCN(c5ncc(Cl)cn5)CC4)c(F)c3)cc2OC12CCC2 [Example C-14, 5-chloro-2-(4-{[4-(3,3-dioxidospiro[1,3-benzoxathiole-2,1′-cyclobutan]-6-yl)-2-fluorophenoxy]methyl}piperidin-1-yl)pyrimidine] | 67 | 29.8 |  |  |

More lines, now with the values ahead:

| Emax (human GPR119 receptor [1]; [3]) [%] | EC50 (human GPR119 receptor [2]; [3]) [nM] | EC50 (human GPR119 receptor [2]; [4]) [nM] | Emax (human GPR119 receptor [1]; Table 2A entries 1-17, protocol as described, 100% = cells with Forskolin, 0% = DMSO only) [%] | SMILES |
| --- | --- | --- | --- | --- |
| 81 | 68.6 |  |  | CC1(C)Oc2cc(-c3ccc(OCC4CCN(c5ncc(Cl)cn5)CC4)c(F)c3)ccc2S1(=O)=O [Example C-5, 5-chloro-2-(4-{[4-(2,2-dimethyl-3,3-dioxido-1,3-benzoxathiol-6-yl)-2-fluorophenoxy]methyl}piperidin-1-yl)pyrimidine] |
|  |  | 10000 |  | NC(=O)N1CCC(COc2ccc(-c3ccc4c(c3)OCS4(=O)=O)cc2F)CC1 [Example A-20] |
|  |  | 7040 | 66 | O=C(O)CN1CCC(COc2ccc(-c3ccc4c(c3)OCS4(=O)=O)cc2F)CC1 [Example A-23, 2-(4-((4-(3,3-Dioxido-2H-benzo[d][1,3]oxathiol-6-yl)-2-fluorophenyoxy) Methyl)-piperidin-1-yl)acetic Acid] |
|  |  | 10000 |  | NCC(=O)N1CCC(COc2ccc(-c3ccc4c(c3)OCS4(=O)=O)cc2F)CC1 [Example A-17] |
